The values that follow come from US20110177156A1, “Sterol-Modified Amphiphilic Lipids” (priority 2007, published 2011).

Where two headings read alike, the source gives them in different places.

The conditions of data set [1]: SML:PC:AmB=2:2:1 (mole) liposomes, stored at 4° C.
Protocol: First, the chloroform solution of SML/diacyl PC lipids mixture at given ratio were evaporated, and lipid film was placed under high vacuum overnight. Given amount of amphotericin B DMSO solution (20 mg/mL) was then added to the lipid film followed by the addition of pH 7.4 PBS. The mixture was sonicated under argon at 60° C. for 1 hour. The mixture was then dialyzed against pH 7.4 PBS. The yellow solution obtained was sterilized by filtering through 220 nm membrane. Products were stored at 4° C. for future study.
A short description of data set [2]: Cholesterol exchange from donor liposomes to POPC acceptor liposomes at 37° C. It is filed as physicochemical. To be noted: for exchange of cholesterol out of donor liposomes: PChcPC/DPPC/DPPG (50/40/10), DChcPC/DPPC/DPPG (25/65/10), POPC acceptor. As for the experimental part: Unilamellar liposomes were prepared by extrusion method. […] Specifically, the three donor liposomes were formulated at the following molar ratios: 1) […] (50/40/10), 2) […] (25/65/10), 3) Chol/DPPC/DPPG (40/50/10). Neutral 1-palmitoyl-2-oleoyl-sn-glycero-3-phosphocholine (POPC) liposome was used as the acceptor. After extrusion, the diameter of the donor liposomes was around 100 nm, and 140 nm for the acceptor liposome. For the exchange experiments, 1 mL donor liposomes (10 mM) and 1 mL acceptor liposomes (100 mM, 10 fold) were warmed at 37° C. first, then mixed and incubated at 37° C. An aliquot (250 μL) of mixture was sampled at given time point and applied to a small (ca. 1 cm in length) anion exchange column (Q-Sepharose XL). The column was pretreated with 0.1 mL 10 mM POPC before the loading of the exchange sample to reduce the nonspecific binding of the neutral liposome. The column was eluted with 1 mL 10 mM NaCl, 10 mM HEPES pH 7.4 buffer. The eluate was lyophilized and analyzed by the cholesterol assay to quantify the amount of cholesterol exchanged.

Data set [3] relates to C26 colon carcinoma cells. The settings on record: MTT, concentration as high as 1 mM.
Protocol: The cytotoxicity of the SML lipids was evaluated with the standard MTT (3-(4,5-dimethylthiazolyl-2)-2,5-diphenyltetrazolium bromide) assay method. Briefly, C26 cells were incubated with lipids of various concentrations for a period of time at 37° C. Then the medium was replaced with the MTT working reagents, and the cells were incubated for another two hours. The reagents were then carefully removed. The converted dye was solubilized in acidic isopropanol. The absorbance of the dye was measured at 570 nm with background subtraction at 650 nm.
Data set [4] in a line: Differential scanning calorimetry of SMLs and SML/diacyl lipid mixtures. It counts as physicochemical. From the text:
Specific SMLs were used as the model compounds to study the properties of the SML compounds. Phase behavior is one of the most important properties of lipid bilayers and is associated with various biological functions of cell membranes. Addition of free cholesterol to the phospholipid bilayer will change the phase behavior of the bilayer due to the mixing of free cholesterol with the glycerolipids and sphingolipids as well as the effect the isoprenol tail of free cholesterol exerts on the acyl chain packing in the bilayer. Using differential scanning calorimetry it was shown that the SMLs exert a similar effect as free cholesterol on acyl chain packing in bilayers composed of synthetic lipids. […] The equivalent sterol molar percentage in the mixture of m-SML and diacyl lipid is calculated according to the method of conventional lipid mixture with the following formula: Sterol %=[…])×100, wherein: For example, a pure m-SML has one sterol and one acyl chain, thus the equivalent free sterol percentage is 1/1.5×100=67. […]
A general note: In DSC, transitions show as peaks or steps in heat flow.

For data set [5] the following is noted: calcein liposomes, 37° C., compared with DMPC liposomes.
Protocol: The fluorescent dye calcein (2.49 g, 4 mmol) was dissolved in Tris-HCl buffer (10 mM, pH 7.5, 6 mL) after the addition of 50% sodium hydroxide (695 μL, 13.2 mmol). This stock solution was then loaded on a Sephadex LH-20 column (2.5 cm×40 cm) and eluted with Tris-HCl buffer (10 mM, pH 7.5). The concentration of pooled fraction of calcein was determined by measuring the absorbance (494 nm) of diluted sample at pH 9. The purified calcein (56 mM) was then encapsulated into the liposomes for the leakage assay. Generally, the dry lipid film (10 μmol) of given formulation was hydrated in 1 mL calcein containing buffer at 60° C. under argon for 15 min with intermittent vortex. […] The pooled liposome fractions were then analyzed to determine the calcein concentration, and diluted to the linear fluorescence range for leakage studies discussed below.
Liposomes used for this study were prepared according to the above mentioned method (Example 11) with high concentration content (56 mM calcein, 10 mM Tris, 711 mM NaCl), extruded through 100 nm membrane, and eluted with the isosmotic buffer (50 mM HEPES, 775 mM NaCl). […] Fluorescence signal at 517 nm (ext.: 494 nm) was read after 5 min equilibration by using a Quantech™ fluorometer (Barnstead/Thermolyne, Dubuque, Iowa). […] The fluorescence of the total calcein was measured and used as 100% signal (F100%). […]
Data set [6] can be described thus: Leakage of calcein from liposomes in 30% fetal bovine serum at 37° C.
Protocol: The purified calcein (56 mM) was then encapsulated into the liposomes for the leakage assay. Generally, the dry lipid film (10 μmol) of given formulation was hydrated in 1 mL calcein containing buffer at 60° C. under argon for 15 min with intermittent vortex. Then the sample was extruded through a polycarbonate membrane 11 times at 60° C. followed by passing a Sephadex G-50 column with the corresponding isosmotic eluent. The pooled liposome fractions were then analyzed to determine the calcein concentration, and diluted to the linear fluorescence range for leakage studies discussed below.
Calcein was encapsulated into the liposome by the method described above. Liposomes were extruded through 200 nm membrane and the free calcein was removed by passing the liposomes through the Sephadex G-50 column using HEPES buffer (10 mM HEPES, 140 mM NaCl, pH 7.4) as the isomotic eluent. Conventional liposome formulations containing 40% cholesterol (mole percent) were used as the control in the long term leakage assay. An aliquot of liposome sample (20-50 μL) was diluted by 30% fetal bovine serum to a total volume of 2 mL. Samples were then sealed in the glass tube and incubated at 37° C. Fluorescence intensities of samples were monitored at different time points and the fraction of calcein remaining in the liposome was determined by the similar method of osmotic stress induced leakage. […]
In another data set the test system is C26 colon carcinoma. Briefly: Survival of Balb/C mice tumored with C26 colon carcinoma after doxorubicin delivered in liposomes of various compositions. It counts as in vivo. To be noted: Dose of Dox 10 mg/kg, s.c. C26 tumors. As for the experimental part:
The effect of these formulations on tumor progression and animal survival were compared against the effect non-encapsulated doxorubicin or Doxil™, a commercial liposome formulation of doxorubicin that is approved by the Food and Drug Administration in the Balb/C mice tumored with C26 colon carcinoma. (FIGS. 8 and 9, Table 3).
Drug loaded liposomes of defined size were prepared by methods well known in the art and described in, for example, (Liposomes: 2nd edition, Oxford University Press, 2003, V. Torchilin and V. Weissig., Ed.). Lipid films were prepared by drying 10 μmoles of lipid mixtures dissolved in chloroform under a reduced pressure in glass tubes using a rotary evaporator at room temperature, followed by an overnight exposure to a high vacuum. Liposomes were prepared by rehydrating the thin lipid film above the transition temperature of the lipid in a sterile 250 mM ammonium sulfate solution in screw-capped glass tubes, followed by sonication in a bath type sonicator for 10 minutes at 60° C. The liposome preparation was then extruded through 0.1 micron polycarbonate membranes. […] Mean vesicle diameters as measured by dynamic light scattering using the multimodal program ranged between 85-140 nm with a monodisperse particle size distribution (Malvern Instruments, UK). […]
All animal experiments were performed in compliance with the NIH guidelines for animal research under a protocol approved by the Committee on Animal Research at the University of California, San Francisco. […] Mice were weighed and tumor sizes were monitored daily during the experimental period. The tumor volume was estimated by measuring three orthogonal diameters (a, b, and c) with calipers; the volume was calculated as (a×b×c)×0.5 cm^3. […] In each experiment the mice were monitored for up to 60 days post-inoculation or until one of the following conditions for euthanasia was met: 1) their body weight dropped below 15% of their initial mass; 2) their tumor was greater than 2.0 cm across in any dimension; 3) they became lethargic or sick and unable to feed; or 4) they were found dead. […]

Data set [7] is classed as physicochemical. The protocol: SML16m was designed to have a large surface area than conventional phospholipids by replacing of the hydrophobic lipid chain with an amphiphilic poly(ethylene glycol) chain. […] Unlike conventional amphiphilic molecules, SML16m solution doesn't foam when agitated, but forms a thin membrane along the glass wall above the solution surface. SML16m can effectively solubilize amphotericin B at molar ratios of 1:1 or higher to obtain a concentration of 5 mg/mL. SML16m can also be formulated with other lipids to achieve small liposomes.

As to `CCCCCCCCCCCCCCOCC(COP(=O)([O-])OCC[N+](C)(C)C)OC(=O)OC1CCC2(C)C(=CCC3C2CCC2(C)C(C(C)CCCC(C)C)CCC32)C1` (racemic) [SML4c, 1-Myristyl-2-cholesterylcarbonoyl-rac-glycero-3-phosphocholine], the “stability of formulation at 4° C.” value in data set [1] is listed as “more than one year”.
Same read-out and setting: next, `CCCCCCCCCCCCCCCCOCC(COP(=O)([O-])OCC[N+](C)(C)C)OC(=O)OC1CCC2(C)C(=CCC3C2CCC2(C)C(C(C)CCCC(C)C)CCC32)C1` (racemic) [SML4b, 1-Palmityl-2-cholesterylcarbonoyl-rac-glycero-3-phosphocholine]: “more than one year”.
On to `CC(C)CCC[C@@H](C)[C@H]1CC[C@H]2[C@@H]3CC=C4C[C@@H](O)CC[C@]4(C)[C@H]3CC[C@]12C` [free cholesterol, cholesterol, reference compound], for which the “half time for cholesterol exchange” value in data set [2] (free cholesterol in a conventional liposome (Chol/DPPC/DPPG 40/50/10)) is about 2 h.
Consider `CCCCCCCCCCCCCCCCCC(=O)OCC(COP(=O)([O-])OCC[N+](C)(C)C)OC(=O)OC1CCC2(C)C(=CCC3C2CCC2(C)C(C(C)CCCC(C)C)CCC32)C1` (centres unmarked) [SML5a, 1-Stearoyl-2-cholesterylcarbonoyl-sn-glycero-3-phosphocholine], for which the “stability of formulation at 4° C.” value in data set [1] is “more than one year”.
Turning to `CCCCCCCCCCCCCCCCNC(=O)OC(COC(=O)OC1CCC2(C)C(=CCC3C2CCC2(C)C(C(C)CCCC(C)C)CCC32)C1)COP(=O)([O-])OCC[N+](C)(C)C` (centres unmarked) [SML1b, 1-Cholesterycarbonoyl-2-palmitylcarbamoyl-sn-glycero-3-phosphocholine], the cytotoxicity entry in data set [3] is “certain cytotoxicity”.
Regarding `CC(C)CCC[C@@H](C)[C@H]1CC[C@H]2[C@@H]3CC=C4C[C@@H](OC(=O)OC[C@H](COP(=O)([O-])OCC[N+](C)(C)C)OC(=O)O[C@H]5CC[C@@]6(C)C(=CC[C@H]7[C@@H]8CC[C@H]([C@H](C)CCCC(C)C)[C@@]8(C)CC[C@@H]76)C5)CC[C@]4(C)[C@H]3CC[C@]12C` [SML6a, 1,2-Dicholesterylcarbonoyl-sn-glycero-3-phosphocholine], the “exchange of cholesterol out of donor liposomes” value in data set [2] is listed as “very little or no detectable exchange of cholesterol”. Also, the “new transition in DSC trace” value in data set [4] (DChcPC/DPPC mixtures, equivalent free cholesterol 30 mole percent) was “around 20 °C”.
Regarding `CCCCCCCCCCCCCCNC(=O)O[C@H](COC(=O)O[C@H]1CC[C@@]2(C)C(=CC[C@H]3[C@@H]4CC[C@H]([C@H](C)CCCC(C)C)[C@@]4(C)CC[C@@H]32)C1)COP(=O)([O-])OCC[N+](C)(C)C` [SML1c, 1-Cholesterylcarbonoyl-2-myristylcarbamoyl-sn-glycero-3-phosphocholine], the “osmotic leakage profile / stability under osmotic gradients” value in data set [5] is on record as “no difference in osmotic induced release”; in data set [5] (listed as ChcMaPC) it was “good stability”. In data set [6] (37° C., 4 weeks), the “leakage profile of calcein from liposomes” value is “remained intact”. Moreover, in data set [6] (28 days), the “leakage of calcein in 28 days” value is on record as “less than 1%”.
With `COc1cccc2c1C(=O)c1c(O)c3c(c(O)c1C2=O)C[C@@](O)(C(=O)CO)C[C@@H]3O[C@H]1C[C@H](N)[C@H](O)[C@H](C)O1` [Free Dox, Doxorubicin], the “# of Animals Surviving at Day 60 (n = 5)” value is reported as 0 in the data set on C26 colon carcinoma and “no animals survived to 60 days” in the data set on C26 colon carcinoma (listed as non-encapsulated doxorubicin). Also, the “Median Survival Day” value with C26 colon carcinoma came to 26 days.
Take “1-Cholesterylcarbonoyl-2-palmityl-rac-glycero-3-phosphocholine [SML2b]”: the “equivalent cholesterol at which the phase transition is eliminated completely” value in data set [4] (SML mixed with diacyl lipid of the same chain length (C-16)) is on record as 30%.
`CCCCCCCCCCCCCCCC(=O)OCC(COP(=O)([O-])OCC[N+](C)(C)C)OC(=O)OC1CCC2(C)C(=CCC3C2CCC2(C)C(C(C)CCCC(C)C)CCC32)C1` (centres unmarked) [SML5b, 1-Palmitoyl-2-cholesterylcarbonoyl-sn-glycero-3-phosphocholine]: the “exchange of cholesterol out of donor liposomes” value in data set [2] was “very little or no detectable exchange of cholesterol”. Further, in data set [1], the “stability of formulation at 4° C.” value is reported as “more than one year”.
Take `CCCCCCCCCCCCCCCCCCNC(=O)OC(COC(=O)OC1CCC2(C)C(=CCC3C2CCC2(C)C(C(C)CCCC(C)C)CCC32)C1)COP(=O)([O-])OCC[N+](C)(C)C` (centres unmarked) [SML1a, 1-Cholesterylcarbonoyl-2-stearylcarbamoyl-sn-glycero-3-phosphocholine]: the cytotoxicity result in data set [3] is reported as “certain cytotoxicity”.
With `COCCOCCOCCOCCOCCOCCOCCOCCC(=O)O[C@H](COC(=O)CCC(=O)O[C@H]1CC[C@@]2(C)C(=CC[C@H]3[C@@H]4CC[C@H]([C@H](C)CCCC(C)C)[C@@]4(C)CC[C@@H]32)C1)COP(=O)([O-])OCC[N+](C)(C)C` [SML16m, 1-cholesterylhemisuccinoyl-2-(2,5,8,11,14,17,20,23-octaoxahexacosan-26-oyl)-sn-glycero-3-phosphocholine], in data set [7], the “concentration of amphotericin B solubilized” value was 5000 µg/mL and the solubility in water result is “dissolves in water easily”.
